Data from the NIST ThermoML archive (doi:10.1021/acs.jced.5b00950).
Numbers after ± are expanded uncertainties.

Columns and labels:
[1] = refractive index (Na D-line) (dimensionless); details: 298.2 K; 101.33 kPa; Liquid; Standard Abbe refractometry
[2] = 298.2 K; 101.33 kPa; Liquid; Vibrating tube method

## CCCC(=O)O [butanoic acid]
[1]
  refractive index: 1.3964 ± 0.002
[2]
  mass density: 952.8 ± 2 kg/m3

## CC(=O)Oc1ccccc1 [phenyl ethanoate]
[1]
  refractive index: 1.5012 ± 0.002
[2]
  mass density: 1073 ± 2 kg/m3

## O [water]
[1]
  refractive index: 1.3324 ± 0.002
[2]
  mass density: 999.9 ± 2 kg/m3
